# Data taken from patent publication US5705170A, “Herbal cellulite treatments” (priority 1995, dated 1998).
# Assays:
# [1] = tested on: adipocytes isolated from the thigh area of volunteers (adipocyte β receptors); experiment: Lipolysis stimulation by glycerin release in isolated adipocytes; format: cell-based, human; settings: for Concentration at maximum stimulation: lipolysis; for Emax: Homo sapiens, Adipocyte, read-out: Maximum stimulation (lipolysis)
# Protocol: Glycerin release was used as a parameter to quantify lipolysis in actively metabolism adipocytes isolated from the thigh area of volunteers and evaluate various ingredients for their ability to stimulate adipocyte β receptors. Refined, or purified Malvaceae extracts comprising preferred aqueous or lipophilic fractions as described above, and some known β-adrenergic stimulators used in anticellulite treatments, namely the xanthines aminophylline, caffeine and theophylline, were tested. Also tested, for comparative purposes, were a crude Hibiscus Abelmoschus extract and a herbal ingredient that has been used in anticellulite compositions, ivy extract.
# cAMP = cAMP level (elevation of cAMP); format: cell-based, human
# [2] = tested on: isolated adipocytes (adipocyte α2-receptors); experiment: Inhibition of adipocyte lipid synthesis (lipogenesis); format: cell-based
# Description: The results obtained are reported below in Table 2.
# [3] = glycerin release, most effective concentration
SMILES,"Maximum stimulation (lipolysis) [1, 3] [%]",Concentration at maximum stimulation [1] [mg/mL],Elevation of cAMP (cAMP),Lipogenesis inhibition (in words) [2],Maximum inhibition of adipocyte fat [2],"Emax [1, 3] [%]"
Cn1c(=O)c2[nH]cnc2n(C)c1=O [aminophylline],54.0,1.00,ns,No lipogenesis inhibition activity,none,
Cn1c(=O)c2c(ncn2C)n(C)c1=O [caffeine],,2.00,ns,,,51
Cn1c(=O)c2[nH]cnc2n(C)c1=O [theophylline],,1.00,ns,No lipogenesis inhibition activity,none,45
